# Measurements taken from patent US20260217735A1, “HETEROCYCLES AND USES THEREOF” (Kumquat Biosciences Inc., priority 2023, published 2026).
# Legend:
# [1] = target: T1, KRAS G12D (Homo sapiens, UniProt P01116, G12D); assay: HTRF assay, KRAS G12D interaction with SOS1; type: biochemical; details: bins <500 nM / 500 nM to 1000 nM, read-out: Inhibition of KRAS G12D (IC50)
# T1 construct: made in house; host or cells: E. coli, e.g. BL21 (DE3)
# [2] = target: T2, KRAS WT (Homo sapiens, UniProt P01116); assay: HTRF assay, wildtype KRAS interaction with SOS1; type: biochemical; details: bins <500 nM / 500 nM to 1000 nM, read-out: Inhibition of KRAS WT (IC50)
# T2 construct: made in house; host or cells: E. coli, e.g. BL21 (DE3)
# [3] = target: T3, KRAS G12V (Homo sapiens, UniProt P01116, G12V); assay: HTRF assay, KRAS G12V interaction with SOS1; type: biochemical; details: bins <500 nM / 500 nM to 1000 nM, read-out: Inhibition of KRAS G12V (IC50)
# T3 construct: made in house; host or cells: E. coli, e.g. BL21 (DE3)
# [4] = target: T4, KRAS G12S (Homo sapiens, UniProt P01116, G12S); assay: HTRF assay, KRAS G12S interaction with SOS1; type: biochemical; details: bins <500 nM / 500 nM to 1000 nM, read-out: Inhibition of KRAS G12S (IC50)
# T4 construct: made in house; host or cells: E. coli, e.g. BL21 (DE3)
# [5] = test system: MiaPaca2 cells; assay: Ras cellular assay, growth of cells with K-Ras G12C mutation; type: cell-based; details: Homo sapiens, MIA PaCa-2; cell proliferation assay; bins ≤500 nM / >500 nM; read-out: Inhibition of MiaPaca2 Cells (IC50)
# In short: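 MIA PaCa-2 cells (K-Ras G12C, about 125-150 cells/well) grown in 0.25% soft agar over a 0.6% agar base, compound added on day 2 at 0.3% final DMSO. Growth read on day 10 by Cell Titer 96 AQueous absorbance (490 nm, reference 660 nm) against time-zero wells; IC50 from four-parameter fit.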
# T3 sequence (P01116 1-188 isoform P01116-2 G12V): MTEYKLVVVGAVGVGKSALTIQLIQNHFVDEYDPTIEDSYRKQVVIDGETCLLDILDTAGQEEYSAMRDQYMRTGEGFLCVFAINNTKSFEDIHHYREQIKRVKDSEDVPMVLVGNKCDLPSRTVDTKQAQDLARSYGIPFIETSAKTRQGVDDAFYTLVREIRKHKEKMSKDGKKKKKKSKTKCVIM
# T1 sequence (P01116 1-188 isoform P01116-2 G12D): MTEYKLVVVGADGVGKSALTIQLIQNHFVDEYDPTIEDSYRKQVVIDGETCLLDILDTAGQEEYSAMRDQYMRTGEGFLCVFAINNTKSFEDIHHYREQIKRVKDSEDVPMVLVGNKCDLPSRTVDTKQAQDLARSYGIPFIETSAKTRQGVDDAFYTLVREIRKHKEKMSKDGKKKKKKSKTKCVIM
# T2 sequence (P01116 1-188 isoform P01116-2): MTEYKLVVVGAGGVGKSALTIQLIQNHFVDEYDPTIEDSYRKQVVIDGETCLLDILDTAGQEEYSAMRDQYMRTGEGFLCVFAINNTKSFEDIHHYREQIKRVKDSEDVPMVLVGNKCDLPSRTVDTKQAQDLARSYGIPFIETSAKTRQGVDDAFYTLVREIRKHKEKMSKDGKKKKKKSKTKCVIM
# T4 sequence (P01116 1-188 isoform P01116-2 G12S): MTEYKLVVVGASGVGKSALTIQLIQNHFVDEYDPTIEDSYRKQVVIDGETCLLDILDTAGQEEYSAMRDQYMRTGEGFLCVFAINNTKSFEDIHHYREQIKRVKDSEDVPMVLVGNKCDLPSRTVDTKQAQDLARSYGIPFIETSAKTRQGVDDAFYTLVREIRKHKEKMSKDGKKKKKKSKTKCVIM
SMILES,IC50 [1],IC50 [2],IC50 [3],IC50 [4],IC50 [5]
"C[C@@H]1[C@H](N(C)c2nc(OC[C@@]34CCCN3C[C@H](F)C4)nc3c(F)c(-c4ccc(F)c5sc(N)c(C#N)c45)c(Cl)cc23)CCN1C(=O)n1ccc(C#N)n1 [Compound 126, 1-((2R,3R)-3-((7-(2-amino-3-cyano-7-fluorobenzo[b]thiophen-4-yl)-6-chloro-8-fluoro-2-(((2R,7aS)-2-fluorotetrahydro-1H-pyrrolizin-7a(5H)-yl)methoxy)quinazolin-4-yl)(methyl)amino)-2-methylpyrrolidine-1-carbonyl)-1H-pyrazole-3-carbonitrile]",< 500 nM,< 500 nM,< 500 nM,< 500 nM,≤ 500 nM
"Cc1nc(C)n(C(=O)N2CC[C@@H](N(C)c3nc(OC[C@@]45CCCN4C[C@H](F)C5)nc4c(F)c(-c5ccc(F)c6sc(N)c(C#N)c56)c(Cl)cc34)[C@H]2C)c1C [Compound 127, 2-amino-4-(6-chloro-8-fluoro-2-(((2R,7aS)-2-fluorotetrahydro-1H-pyrrolizin-7a(5H)-yl)methoxy)-4-(methyl((2R,3R)-2-methyl-1-(2,4,5-trimethyl-1H-imidazole-1-carbonyl)pyrrolidin-3-yl)amino)quinazolin-7-yl)-7-fluorobenzo[b]thiophene-3-carbonitrile]",< 500 nM,< 500 nM,< 500 nM,< 500 nM,≤ 500 nM
"Cc1cn(C(=O)N2CC(F)(CN(C)c3nc(OC[C@@]45CCCN4C[C@H](F)C5)nc4c(F)c(-c5ccc(F)c6sc(N)c(C#N)c56)c(Cl)cc34)C2)cn1 [Compound 128, 2-amino-4-(6-chloro-8-fluoro-4-(((3-fluoro-1-(4-methyl-1H-imidazole-1-carbonyl)azetidin-3-yl)methyl)(methyl)amino)-2-(((2R,7aS)-2-fluorotetrahydro-1H-pyrrolizin-7a(5H)-yl)methoxy)quinazolin-7-yl)-7-fluorobenzo[b]thiophene-3-carbonitrile]",< 500 nM,< 500 nM,< 500 nM,< 500 nM,≤ 500 nM
"CCN(c1nc(OC[C@@]23CCCN2C[C@H](F)C3)nc2c(F)c(-c3ccc(F)c4sc(N)c(C#N)c34)c(Cl)cc12)[C@@H]1CCN(C(=O)n2cc(Cl)nc2C)[C@@H]1C [Compound 130, 2-amino-4-(6-chloro-4-(((2R,3R)-1-(4-chloro-2-methyl-1H-imidazole-1-carbonyl)-2-methylpyrrolidin-3-yl)(ethyl)amino)-8-fluoro-2-(((2R,7aS)-2-fluorotetrahydro-1H-pyrrolizin-7a(5H)-yl)methoxy)quinazolin-7-yl)-7-fluorobenzo[b]thiophene-3-carbonitrile]",< 500 nM,< 500 nM,< 500 nM,< 500 nM,≤ 500 nM
"Cc1ncn(C(=O)N2C[C@]3(CCCCN(c4nc(OC[C@@]56CCCN5C[C@H](F)C6)nc5c(F)c(-c6ccc(F)c7sc(N)c(C#N)c67)c(Cl)cc45)C3)[C@H]2C)c1C [Compound 131, 2-amino-4-(6-chloro-4-((1R,4R)-2-(4,5-dimethyl-1H-imidazole-1-carbonyl)-1-methyl-2,6-diazaspiro[3.6]decan-6-yl)-8-fluoro-2-(((2R,7aS)-2-fluorotetrahydro-1H-pyrrolizin-7a(5H)-yl)methoxy)quinazolin-7-yl)-7-fluorobenzo[b]thiophene-3-carbonitrile]",< 500 nM,< 500 nM,< 500 nM,< 500 nM,≤ 500 nM
"CC[C@@H]1[C@H](N(C)c2nc(OC[C@@]34CCCN3C[C@H](F)C4)nc3c(F)c(-c4ccc(F)c5sc(N)c(C#N)c45)c(Cl)cc23)CCN1C(=O)n1cnc(F)n1 [Compound 134, 2-amino-4-(6-chloro-4-(((2R,3R)-2-ethyl-1-(3-fluoro-1H-1,2,4-triazole-1-carbonyl)pyrrolidin-3-yl)(methyl)amino)-8-fluoro-2-(((2R,7aS)-2-fluorotetrahydro-1H-pyrrolizin-7a(5H)-yl)methoxy)quinazolin-7-yl)-7-fluorobenzo[b]thiophene-3-carbonitrile]",< 500 nM,< 500 nM,< 500 nM,< 500 nM,≤ 500 nM
"C[C@@H]1[C@H](N(C)c2nc(OC[C@@]34CCCN3C[C@H](F)C4)nc3c(F)c(-c4ccc(F)c5sc(N)c(C#N)c45)c(Cl)cc23)CCN1C(=O)n1cnc(C2CC2)c1 [Compound 135, 2-amino-4-(6-chloro-4-(((2R,3R)-1-(4-cyclopropyl-1H-imidazole-1-carbonyl)-2-methylpyrrolidin-3-yl)(methyl)amino)-8-fluoro-2-(((2R,7aS)-2-fluorotetrahydro-1H-pyrrolizin-7a(5H)-yl)methoxy)quinazolin-7-yl)-7-fluorobenzo[b]thiophene-3-carbonitrile]",< 500 nM,< 500 nM,< 500 nM,< 500 nM,≤ 500 nM
"CCN(c1nc(OC[C@@]23CCCN2C[C@H](F)C3)nc2c(F)c(-c3ccc(F)c4sc(N)c(C#N)c34)c(Cl)cc12)[C@@H]1CCN(C(=O)n2ccc(C#N)n2)[C@@H]1C [Compound 136, 1-((2R,3R)-3-((7-(2-amino-3-cyano-7-fluorobenzo[b]thiophen-4-yl)-6-chloro-8-fluoro-2-(((2R,7aS)-2-fluorotetrahydro-1H-pyrrolizin-7a(5H)-yl)methoxy)quinazolin-4-yl)(ethyl)amino)-2-methylpyrrolidine-1-carbonyl)-1H-pyrazole-3-carbonitrile]",< 500 nM,< 500 nM,< 500 nM,< 500 nM,≤ 500 nM
"CCN(c1nc(OC[C@@]23CCCN2C[C@H](F)C3)nc2c(F)c(-c3ccc(F)c4sc(N)c(C#N)c34)c(Cl)cc12)[C@@H]1CCN(C(=O)n2cc(C)nc2Cl)[C@@H]1C [Compound 137, 2-amino-4-(6-chloro-4-(((2R,3R)-1-(2-chloro-4-methyl-1H-imidazole-1-carbonyl)-2-methylpyrrolidin-3-yl)(ethyl)amino)-8-fluoro-2-(((2R,7aS)-2-fluorotetrahydro-1H-pyrrolizin-7a(5H)-yl)methoxy)quinazolin-7-yl)-7-fluorobenzo[b]thiophene-3-carbonitrile]",< 500 nM,< 500 nM,< 500 nM,< 500 nM,≤ 500 nM
"Cc1cn(C(=O)N2CC3(CCCCN(c4nc(OC[C@@]56CCCN5C[C@H](F)C6)nc5c(F)c(-c6ccc(F)c7sc(N)c(C#N)c67)c(Cl)cc45)C3)C2)c(C)n1 [Compound 138, 2-amino-4-(6-chloro-4-(2-(2,4-dimethyl-1H-imidazole-1-carbonyl)-2,6-diazaspiro[3.6]decan-6-yl)-8-fluoro-2-(((2R,7aS)-2-fluorotetrahydro-1H-pyrrolizin-7a(5H)-yl)methoxy)quinazolin-7-yl)-7-fluorobenzo[b]thiophene-3-carbonitrile]",< 500 nM,< 500 nM,< 500 nM,< 500 nM,≤ 500 nM
"CCN(c1nc(OC[C@@]23CCCN2C[C@H](F)C3)nc2c(F)c(-c3ccc(F)c4sc(N)c(C#N)c34)c(C(F)(F)F)cc12)[C@@H]1CCN(C(=O)n2cnc(C#N)c2C)[C@@H]1C [Compound 139, 1-((2R,3R)-3-((7-(2-amino-3-cyano-7-fluorobenzo[b]thiophen-4-yl)-8-fluoro-2-(((2R,7aS)-2-fluorotetrahydro-1H-pyrrolizin-7a(5H)-yl)methoxy)-6-(trifluoromethyl)quinazolin-4-yl)(ethyl)amino)-2-methylpyrrolidine-1-carbonyl)-5-methyl-1H-imidazole-4-carbonitrile]",< 500 nM,< 500 nM,< 500 nM,< 500 nM,≤ 500 nM
"Cc1ncn(C(=O)N2CC3CCN(c4nc(OC[C@@]56CCCN5C[C@H](F)C6)nc5c(F)c(-c6ccc(F)c7sc(N)c(C#N)c67)c(Cl)cc45)C3C2)c1C (stereo partly drawn) [Compound 140, 2-amino-4-(6-chloro-4-(5-(4,5-dimethyl-1H-imidazole-1-carbonyl)hexahydropyrrolo[3,4-b]pyrrol-1(2H)-yl)-8-fluoro-2-(((2R,7aS)-2-fluorotetrahydro-1H-pyrrolizin-7a(5H)-yl)methoxy)quinazolin-7-yl)-7-fluorobenzo[b]thiophene-3-carbonitrile]",< 500 nM,< 500 nM,< 500 nM,< 500 nM,≤ 500 nM
"Cc1c(C#N)ncn1C(=O)N1CC[C@@H](N(C)c2nc(OC[C@@]34CCCN3C[C@H](F)C4)nc3c(F)c(-c4ccc(F)c5sc(N)c(C#N)c45)c(Cl)cc23)[C@H]1C [Compound 141, 1-((2R,3R)-3-((7-(2-amino-3-cyano-7-fluorobenzo[b]thiophen-4-yl)-6-chloro-8-fluoro-2-(((2R,7aS)-2-fluorotetrahydro-1H-pyrrolizin-7a(5H)-yl)methoxy)quinazolin-4-yl)(methyl)amino)-2-methylpyrrolidine-1-carbonyl)-5-methyl-1H-imidazole-4-carbonitrile]",< 500 nM,< 500 nM,< 500 nM,< 500 nM,≤ 500 nM
